Assays:
[1] = molecular target: T1, PDE3A catalytic domain (PDE3Acat) (Homo sapiens, UniProt Q14432); experiment: Phosphodiesterase inhibitory activity, PDE3 ([3H]cAMP, recombinant enzyme); assay type: biochemical; conditions: 30° C., 20 minutes, read-out: IC50(μmol/L) PDE3
T1 construct: made in house; host or cells: Sf9 insect cells (baculovirus, Bac-to-Bac / Gateway)

PDE4Bcat = molecular target: T2, PDE4Bcat (Homo sapiens, UniProt Q07343); experiment: Phosphodiesterase inhibitory activity, PDE4 ([3H]cAMP, recombinant enzyme); assay type: biochemical; conditions: 30° C., 20 minutes, read-out: IC50(μmol/L) PDE4
T2 construct: made in house; host or cells: Sf9 insect cells (baculovirus, Bac-to-Bac / Gateway)
T2 sequence (Q07343 330-659 limits assumed): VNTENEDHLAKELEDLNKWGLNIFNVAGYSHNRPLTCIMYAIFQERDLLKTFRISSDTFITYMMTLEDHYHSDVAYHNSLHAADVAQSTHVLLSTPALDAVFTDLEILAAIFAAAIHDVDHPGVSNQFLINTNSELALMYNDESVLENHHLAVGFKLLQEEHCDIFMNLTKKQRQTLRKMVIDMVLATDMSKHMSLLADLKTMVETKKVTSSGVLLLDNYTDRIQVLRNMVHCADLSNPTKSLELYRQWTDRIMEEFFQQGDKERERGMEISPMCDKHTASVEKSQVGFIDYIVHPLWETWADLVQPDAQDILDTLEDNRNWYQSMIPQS

[2] = system: histamine-induced bronchoconstriction in guinea pigs; experiment: Histamine-induced bronchoconstriction reaction in guinea pigs; assay type: in vivo; conditions: Cavia porcellus, iv, 0.5 min, guinea pig, measured 30 seconds after administration, read-out: Inhibition rate (histamine-induced bronchoconstriction); for inhibition in vivo at 0.3 mg/kg: compound 0.3 mg/kg, i.v.; for inhibition in vivo at 0.1 mg/kg: compound 0.1 mg/kg, i.v. (values in [ ])
Description: Guinea pigs were anesthetized with pentobarbital (30 mg/kg, i.p.). A cannula for intravenous administration was inserted into the left external jugular vein, a cannula for collecting blood and measuring blood pressure was inserted into the right internal carotid artery, and a tracheal cannula was inserted into the trachea. The guinea pigs were maintained on artificial respiration under the conditions of 60 times/min and 10 mL/kg/stroke. The airflow from the side branch of the tracheal cannula was measured by a bronchospasm transducer (Ugo-Basile) and recorded on a computer via Power Lab (ADInstruments Japan). The guinea pigs were immobilized with gallamine (10 mg/kg, i.v.), and histamine (12.5 μg/kg, i.v.) was administered at 10-minute intervals. After the histamine-induced bronchoconstriction became stable, the compound (0.3 mg/kg, i.v.) was administered. The histamine-induced bronchoconstriction reaction was measured 30 seconds after the compound administration to examine the bronchoconstriction inhibitory activity of the compound. The bronchoconstriction was recorded as the airflow value, and the results were represented by the ratio of the maximum value of the histamine- induced airflow 30 seconds after the administration to the maximum value of the airflow before the administration. Also, the test compounds dissolved in DMSO were used. Further, the indications were as follows: inhibition rate≧90% (+++), 90%>inhibition rate≧80% (++), and 80%>inhibition rate≧70% (+). [ ] means the results in the case of 0.1 mg/kg, i.v.

T1 sequence (Q14432 674-1093 limits assumed): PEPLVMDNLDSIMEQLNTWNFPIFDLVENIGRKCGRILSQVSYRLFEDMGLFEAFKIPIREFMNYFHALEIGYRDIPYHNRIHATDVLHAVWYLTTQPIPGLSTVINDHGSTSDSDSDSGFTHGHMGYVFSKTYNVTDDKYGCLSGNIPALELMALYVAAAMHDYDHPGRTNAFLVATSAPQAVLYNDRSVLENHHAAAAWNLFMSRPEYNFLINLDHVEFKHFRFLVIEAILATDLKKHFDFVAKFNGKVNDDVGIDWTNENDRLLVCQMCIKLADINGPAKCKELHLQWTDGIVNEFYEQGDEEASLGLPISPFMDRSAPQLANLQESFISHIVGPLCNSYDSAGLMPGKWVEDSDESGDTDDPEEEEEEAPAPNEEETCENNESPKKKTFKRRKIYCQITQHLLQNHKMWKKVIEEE

| SMILES | IC50 [1] | IC50 (PDE4Bcat) | inhibition in vivo at 0.3 mg/kg [2] | inhibition in vivo at 0.1 mg/kg [2] |
| --- | --- | --- | --- | --- |
| CCc1ccc2c(-c3ccc(=O)n(CCCCOc4ccc(C5=NNC(=O)CC5C)cc4OC)n3)ccc(OC)c2n1 (stereo not drawn) [Example 288, 6-(2-Ethyl-8-methoxyquinolin-5-yl)-2-[4-[2-methoxy-4-(4-methyl-6-oxo-1,4,5,6-tetrahydropyridazin-3-yl)phenoxy]butyl]-2H-pyridazin-3-one] | 0.1 to 1 µmol/L | 0.1 to 1 µmol/L | 80 to 90% | – |
| CCc1ccc2c(-c3ccc(=O)n(CCCCOc4ccc(C5=NNC(=O)C5(C)C)c(F)c4F)n3)ccc(OC)c2n1 [Example 290, 6-(2-Ethyl-8-methoxyquinolin-5-yl)-2-[4-[2,3-difluoro-4-(4,4-dimethyl-5-oxo-4,5-dihydro-1H-pyrazol-3-yl)phenoxy]butyl]-2H-pyridazin-3-one] | < 0.1 µmol/L | < 0.1 µmol/L | ≥ 90% | – |
| CCc1ccc2c(C3=NN(CCCCOc4ccc(C5=NNC(=O)CC5C)cc4OC)C(=O)CC3C)ccc(OC)c2n1 (stereo not drawn) [Example 293, 6-(2-Ethyl-8-methoxyquinolin-5-yl)-5-methyl-2-[4-[2-methoxy-4-(4-methyl-6-oxo-1,4,5,6-tetrahydropyridazin-3-yl)phenoxy]butyl]-4,5-dihydro-2H-pyridazin-3-one] | 0.1 to 1 µmol/L | 0.1 to 1 µmol/L | – | 70 to 80% |
| CCc1ccc2c(C3=NN(CCCCOc4ccc(C5=NNC(=O)CC5C)cc4F)C(=O)CC3C)ccc(OC)c2n1 (stereo not drawn) [Example 294, 6-(2-Ethyl-8-methoxyquinolin-5-yl)-5-methyl-2-[4-[2-fluoro-4-(4-methyl-6-oxo-1,4,5,6-tetrahydropyridazin-3-yl)phenoxy]butyl]-4,5-dihydro-2H-pyridazin-3-one] | < 0.1 µmol/L | < 0.1 µmol/L | – | ≥ 90% |
| CCc1ccc2c(C3=NN(CCCCOc4ccc(C5=NNC(=O)CC5)cc4)C(=O)CC3C)ccc(OC)c2n1 (stereo not drawn) [Example 296, 6-(2-Ethyl-8-methoxyquinolin-5-yl)-5-methyl-2-[4-[4-(6-oxo-1,4,5,6-tetrahydropyridazin-3-yl)phenoxy]butyl]-4,5-dihydro-2H-pyridazin-3-one] | 1 to 10 µmol/L | < 0.1 µmol/L | – | 80 to 90% |
| CCc1ccc2c(C3=NN(CCCCOc4ccc(C5=NNC(=O)CC5)cc4OC)C(=O)CC3C)ccc(OC)c2n1 (stereo not drawn) [Example 297, 6-(2-Ethyl-8-methoxyquinolin-5-yl)-5-methyl-2-[4-[2-methoxy-4-(6-oxo-1,4,5,6-tetrahydropyridazin-3-yl)phenoxy]butyl]-4,5-dihydro-2H-pyridazin-3-one] | 1 to 10 µmol/L | 0.1 to 1 µmol/L | ≥ 90% | – |
| CCc1ccc2c(C3=NN(CCCCOc4ccc(C5=NNC(=O)C5(C)C)cc4)C(=O)CC3C)ccc(OC)c2n1 (stereo not drawn) [Example 300, 6-(2-Ethyl-8-methoxyquinolin-5-yl)-5-methyl-2-[4-[4-(4,4-dimethyl-5-oxo-4,5-dihydro-1H-pyrazol-3-yl)phenoxy]butyl]-4,5-dihydro-2H-pyridazin-3-one] | 1 to 10 µmol/L | < 0.1 µmol/L | 70 to 80% | – |
| CCc1ccc2c(C3=NN(CCCCOc4ccc(C5=NNC(=O)C5(C)C)c(F)c4F)C(=O)CC3C)ccc(OC)c2n1 (stereo not drawn) [Example 303, 6-(2-Ethyl-8-methoxyquinolin-5-yl)-5-methyl-2-[4-[2,3-difluoro-4-(4,4-dimethyl-5-oxo-4,5-dihydro-1H-pyrazol-3-yl)phenoxy]butyl]-4,5-dihydro-2H-pyridazin-3-one] | 0.1 to 1 µmol/L | < 0.1 µmol/L | 80 to 90% | – |
| COc1ccc(-c2ccc(=O)n(CCCCOc3ccc(C4=NNC(=O)CC4)c(F)c3F)n2)c2nc(C(F)(F)F)nn12 [Example 305, 2-[4-[2,3-Difluoro-4-(6-oxo-1,4,5,6-tetrahydropyridazin-3-yl)phenoxy]butyl]-6-(5-methoxy-2-trifluoromethyl-[1,2,4]triazolo[1,5-a]pyridin-8-yl)-2H-pyridazin-3-one] | 0.1 to 1 µmol/L | 1 to 10 µmol/L | ≥ 90% | – |

Further lines, with some results ahead:

| IC50 [1] | IC50 (PDE4Bcat) | SMILES | inhibition in vivo at 0.3 mg/kg [2] | inhibition in vivo at 0.1 mg/kg [2] |
| --- | --- | --- | --- | --- |
| < 0.1 µmol/L | 0.1 to 1 µmol/L | COc1ccc(-c2ccc(=O)n(CCCCOc3ccc(C4=NNC(=O)CC4C)c(F)c3F)n2)c2nc(C(F)(F)F)[nH]c12 (stereo not drawn) [Example 279, 2-[4-[2,3-Difluoro-4-(4-methyl-6-oxo-1,4,5,6-tetrahydropyridazin-3-yl)phenoxy]butyl]-6-(4-methoxy-2-trifluoromethyl-1H-benzimidazol-7-yl)-2H-pyridazin-3-one] | ≥ 90% | – |
| < 0.1 µmol/L | < 0.1 µmol/L | CCc1ccc2c(-c3ccc(=O)n(CCCCOc4ccc(C5=NNC(=O)CC5C)cc4F)n3)ccc(OC)c2n1 (stereo not drawn) [Example 287, 6-(2-Ethyl-8-methoxyquinolin-5-yl)-2-[4-[2-fluoro-4-(4-methyl-6-oxo-1,4,5,6-tetrahydropyridazin-3-yl)phenoxy]butyl]-2H-pyridazin-3-one] | ≥ 90% | – |
| 1 to 10 µmol/L | 0.1 to 1 µmol/L | CCc1ccc2c(-c3ccc(=O)n(CCCCOc4ccc(C5=NNC(=O)CC5)cc4OC)n3)ccc(OC)c2n1 [Example 291, 6-(2-Ethyl-8-methoxyquinolin-5-yl)-2-[4-[2-methoxy-4-(6-oxo-1,4,5,6-tetrahydropyridazin-3-yl)phenoxy]butyl]-2H-pyridazin-3-one] | 70 to 80% | – |
| 1 to 10 µmol/L | 0.1 to 1 µmol/L | CCc1ccc2c(C3=NN(CCCOc4ccc(C5=NNC(=O)CC5C)cc4)C(=O)CC3C)ccc(OC)c2n1 (stereo not drawn) [Example 292] | 80 to 90% | – |
| < 0.1 µmol/L | < 0.1 µmol/L | CCc1ccc2c(C3=NN(CCCCOc4ccc(C5=NNC(=O)CC5C)c(F)c4F)C(=O)CC3C)ccc(OC)c2n1 (stereo not drawn) [Example 295, 6-(2-Ethyl-8-methoxyquinolin-5-yl)-5-methyl-2-[4-[2,3-difluoro-4-(4-methyl-6-oxo-1,4,5,6-tetrahydropyridazin-3-yl)phenoxy]butyl]-4,5-dihydro-2H-pyridazin-3-one] | – | 80 to 90% |
| < 0.1 µmol/L | < 0.1 µmol/L | CCc1ccc2c(C3=NN(CCCCOc4ccc(C5=NNC(=O)CC5)cc4F)C(=O)CC3C)ccc(OC)c2n1 (stereo not drawn) [Example 298, 6-(2-Ethyl-8-methoxyquinolin-5-yl)-5-methyl-2-[4-[2-fluoro-4-(6-oxo-1,4,5,6-tetrahydropyridazin-3-yl)phenoxy]butyl]-4,5-dihydro-2H-pyridazin-3-one] | – | ≥ 90% |
| ≥ 10 µmol/L | 0.1 to 1 µmol/L | CCc1ccc2c(C3=NN(CCCCOc4ccc(C5=NNC(=O)C5(C)C)cc4OC)C(=O)CC3C)ccc(OC)c2n1 (stereo not drawn) [Example 301, 6-(2-Ethyl-8-methoxyquinolin-5-yl)-5-methyl-2-[4-[2-methoxy-4-(4,4-dimethyl-5-oxo-4,5-dihydro-1H-pyrazol-3-yl)phenoxy]butyl]-4,5-dihydro-2H-pyridazin-3-one] | 80 to 90% | – |
| < 0.1 µmol/L | 1 to 10 µmol/L | COc1ccc(-c2ccc(=O)n(CCCCOc3ccc(C4=NNC(=O)CC4C)c(F)c3F)n2)c2nc(C(F)(F)F)nn12 (stereo not drawn) [Example 304, 2-[4-[2,3-Difluoro-4-(4-methyl-6-oxo-1,4,5,6-tetrahydropyridazin-3-yl)phenoxy]butyl]-6-(5-methoxy-2-trifluoromethyl-[1,2,4]triazolo [1,5-a]pyridin-8-yl)-2H-pyridazin-3-one] | ≥ 90% | – |
| 1 to 10 µmol/L | < 0.1 µmol/L | CCc1ccc2c(C3=NN(CCOc4ccc(C5=NNC(=O)CC5C)cc4)C(=O)CC3C)ccc(OC)c2n1 (stereo not drawn) [Example 315, 6-(2-Ethyl-8-methoxyquinolin-5-yl)-5-methyl-2-[2-[4-(4-methyl-6-oxo-1,4,5,6-tetrahydropyridazin-3-yl)phenoxy]ethyl]-4,5-dihydro-2H-pyridazin-3-one] | 70 to 80% | – |
| < 0.1 µmol/L | 0.1 to 1 µmol/L | COc1ccc(C2=NN(CCCCOc3ccc(C4=NNC(=O)CC4C)cc3)C(=O)CC2C)c2cccnc12 (stereo not drawn) [Example 316, 6-(8-Methoxyquinolin-5-yl)-5-methyl-2-[4-[4-(4-methyl-6-oxo-1,4,5,6-tetrahydropyridazin-3-yl)phenoxy]butyl]-4,5-dihydro-2H-pyridazin-3-one] | – | ≥ 90% |
| < 0.1 µmol/L | 0.1 to 1 µmol/L | COc1ccc(-c2ccc(=O)n(CCCCOc3ccc(C4=NNC(=O)CC4C)cc3)n2)c2cccnc12 (stereo not drawn) [Example 318, 6-(8-Methoxyquinolin-5-yl)-2-[4-[4-(4-methyl-6-oxo-1,4,5,6-tetrahydropyridazin-3-yl)phenoxy]butyl]-2H-pyridazin-3-one] | ≥ 90% | – |

From US20100160335A1, “PYRIDAZINONE DERIVATIVE AND PDE INHIBITOR CONTAINING THE SAME AS ACTIVE INGREDIENT” (KYORIN PHARMACEUTICAL CO., LTD., priority 2007, published 2010)
